From patent US20220016092A1, “METHODS FOR TREATING SYMPTOMS AND DISORDERS ASSOCIATED WITH LYSOSOMAL STORAGE DISEASES” (GENZYME CORPORATION, priority 2019, published 2022)
Read-outs that look alike come from different tables or passages of the source.

Tests used:
Assay type in all cases: in vivo, human
[1] = system: adult patients with Gaucher disease Type 3; test: Clinical study in GD-3 patients: horizontal and vertical saccadic eye movements; settings: 15 mg/day + imiglucerase
Method: (§1) During the study patients were evaluated for safety and tolerability, CSF and plasma biomarkers (glucosylceramide, GL-1; glucosylsphingosine, lyso-GL1), pharmacokinetics, markers for systemic disease (spleen and liver volume measured by magnetic resonance imaging (MRI), platelet count, hemoglobin levels), indicia of interstitial lung disease (high resolution pulmonary computed tomography (CT)), and horizontal saccadic eye movement.
Quantification of horizontal and vertical saccadic eye movements (HSEM and VSEM, respectively) was performed in all 5 patients. In the five patients, mean peak velocity (PV) of horizontal rightward 15° saccades was 50.8°/s (+/−8.1°/s) at baseline and […] (+/−12.6°/s) at Week 26; and the mean PV of horizontal leftward 15° saccades was 44.7° /s (+/−17.9°/s) at baseline and 32.3°/s (+/−15.9°/s) at Week 26. A slower velocity implies a more significant degree of neurological impairment. The mean PV of horizontal rightward 30° saccades was 77.7°/s (+/−16.4°/s) at baseline and […] (+/−24.7°/s) at Week 26; and the mean PV of horizontal leftward 30° saccades was 58.7°/s (+/−21.5°/s) at baseline and 49.9°/s (+/−8.5°/s) at Week 26. The normal range for […] horizontal saccades has previously been reported as >200°/s and >400°/s (Bremova-Ertl et al, 2018). […] As with HSEM, VSEM measurements were stable between baseline and week 26.
At 52 weeks, quantification of horizontal and vertical saccadic eye movements was performed in all six patients in a similar manner as described in section (A). However, it was determined that the methodology used to account for noise (e.g., caused by blinking or head movements) may have introduced bias into the results. The method of accounting for noise was therefore modified, and a set of control criteria were developed to assess validity of the datasets obtained by the eye movement reader.

[2] = system: adult patients with Gaucher disease Type 3; test: Clinical study in GD-3 patients: safety and tolerability; settings: 15 mg/day + imiglucerase
Method: as §1

[3] = Clinical study in GD-3 patients: Compound 2 concentrations in plasma and CSF; settings: 15 mg/day + imiglucerase; for AUC(0-t): read-out: AUC0-24 (mean ± SD); for Cmax: read-out: Cmax (mean ± SD)
Description: Patients 18 years of age or older with a clinical diagnosis of GD3 and documented deficiency of acid beta-glucosidase activity having received treatment with ERT for at least 3 years and with imiglucerase (Cerezyme) at a stable monthly dose for at least 6 months prior to enrollment were included in the study. Patients must have reached the following GD therapeutic goals: hemoglobin level of ≥11.0 g/dL for females and ≥12.0 g/dL for males; platelet count ≥100 000/mm3; spleen volume <10 multiples of normal (MN), or total splenectomy (provided the splenectomy occurred >3 years prior to randomization); liver volume <1.5 MN; and no bone crisis and free of symptomatic bone disease such as bone pain attributable to osteonecrosis and/or pathological fractures within the last year. Patients must have GD3 featuring oculomotor apraxia (supranuclear gaze palsy) characterized by a horizontal saccade abnormality.
as §1
A second interim analysis was performed when the first 6 patients had reached 52-weeks of treatment, as described above in section (A). This analysis included Patients 1-5 as described in section (A), as well as new Patient 6. All six patients had L444P (1448T/C) homozygous Gaucher phenotype.

[4] = system: adult patients with Gaucher disease Type 3; test: Clinical study in GD-3 patients: Scale for Assessment and Rating of Ataxia (SARA); settings: 15 mg/day + imiglucerase
Method: The degree of ataxia at baseline and throughout the study was evaluated by the Scale for Assessment and Rating of Ataxia (SARA; Schmitz-Hübsch et al. [2006]), which assesses eight distinct attributes of cerebellar ataxia on a scale of 0-40. The eight attributes are gait, stance, sitting, speech disturbance, finger chase, nose-finger test, fast alternate hand movement, and heel-shin slide. SARA ataxia scoring results for all six patients is presented in the chart below: […]

[5] = Study 1 Part 1: ascending single-dose pharmacokinetics in healthy volunteers; settings: healthy men; for Tmax: male, human, plasma, read-out: tmax, median
Description: Study 1 was a 2-part single-center trial in healthy adult male volunteers.
Part 1 of the study enrolled and randomized 55 healthy men (placebo, n=14; 2-, 5-, 15, 25-, 50, and 100-mg doses, n=6 each; 150-mg dose, n=5). Eight healthy men participated in Part 2. […]

[6] = human, plasma, oral, plasma, Day 1 (N = 5)
[7] = human, plasma, oral, plasma, Day 1 (N = 6)
[8] = single oral dose 2 mg, fasted (N = 6)
[9] = single oral dose 5 mg, fasted (N = 6)
[10] = single oral dose 15 mg, fasted (N = 6)
[11] = single oral dose 25 mg, fasted (N = 6)
[12] = single oral dose 50 mg, fasted (N = 6)
[13] = single oral dose 100 mg, fasted (N = 6)
[14] = single oral dose 150 mg, fasted (N = 5)

CC(C)(NC(=O)O[C@@H]1CN2CCC1CC2)c1csc(-c2ccc(F)cc2)n1 [Compound 2, (S)-quinuclidin-3-yl 2-(2-(4-fluorophenyl)thiazol-4-yl)propan-2-ylcarbamate]
Changes in HSEM ([1]; 26-week treatment period): no clinically meaningful changes in HSEM
Mean peak velocity of horizontal leftward 15° saccades ([1]; Week 26, five patients): 32.3 °/s
Mean peak velocity of horizontal leftward 30° saccades ([1]; Week 26, five patients): 49.9 °/s
VSEM measurements ([1]; between baseline and week 26): stable
Treatment-emergent adverse events ([2]; 26 weeks, all 5 patients): no serious or lasting treatment-emergent adverse events
Severity and relatedness of treatment-emergent adverse events ([2]; 52 weeks, six patients): mild or moderate in severity, and none of which were considered related to treatment with Compound 2 or imiglucerase
Total treatment-emergent adverse events reported ([2]; 52 weeks, six patients): 30
Crossing of the blood-brain barrier [3]: effectively cross the blood-brain barrier in all patients
Time at which steady state concentration is reached in plasma and CSF [3]: ≤ 4 Week
Concentration in CSF 2-4 hours post dose (mean ± SD) ([3]; Day 1 (N = 6)): <LLOQ
Concentration in CSF 4 hours post dose (mean ± SD) ([3]; Week 4 (N = 5)): 4.17 ± 0.83 ng/mL
Concentration in CSF 4 hours post dose (mean ± SD) ([3]; Week 26 (N = 4)): 4.71 ± 2.50 ng/mL
tmax (median) ([3]; plasma, Day 1 (N = 6)): 2.00 h
Tmax ([3]; human, oral, plasma, Day 1 (N = 5), read-out: tmax (median)): 2 h
AUC(0-t) [3, 6]: 715 ± 225 ng·h/mL
Cmax [3, 6]: 48.2 ± 19.2 ng/mL
AUC(0-t) [3, 7]: 729 ± 205 ng·h/mL
Cmax [3, 7]: 49.1 ± 17.3 ng/mL
Patients showing improvements in ataxia ([4]; 52 weeks): 5 of 6
Patients exhibiting an improvement in ataxia, excluding Patient 5 ([4]; Week 52): 4 out of 5
Mean improvement in SARA score, excluding Patient 5 ([4]; Week 52, SD=3.2): −0.9
CL/F, Geometric mean [5, 8]: 6.3 L/h
CL/F, Mean [5, 8]: 6.43 L/h
CL/F, Geometric mean [5, 9]: 5.8 L/h
CL/F, Mean [5, 9]: 5.86 L/h
CL/F, Geometric mean [5, 10]: 5.6 L/h
CL/F, Mean [5, 10]: 5.85 L/h
Cmax, Geometric mean [5, 10]: 50.7 ng/mL
CL/F, Geometric mean [5, 11]: 5.0 L/h
CL/F, Mean [5, 11]: 5.18 L/h
CL/F, Geometric mean [5, 12]: 5.5 L/h
CL/F, Mean [5, 12]: 5.75 L/h
CL/F, Geometric mean [5, 13]: 5.3 L/h
CL/F, Mean [5, 13]: 5.38 L/h
CL/F, Geometric mean [5, 14]: 5.6 L/h
CL/F, Mean [5, 14]: 5.80 L/h
Tmax [5, 11]: 5 h
Tmax [5, 13]: 3 h
